Test results as given in patent publication US6525001B1, “Substituted pyrimidine and pyridine herbicides” (Mid-American Commercialization Corporation, priority 1997, dated 2003).

How the values were obtained:
Format in all cases: in vivo
Set-up in all cases: key: 0 is no effect; 10 is complete control
[1] = tested on: bedstraw (Galium aparine); experiment: Test B pre-/postemergence
Description: (§1) Seeds of bedstraw (Galium aparine), blackgrass (Alopecurus myosuroides), broadleaf signalgrass (Brachiaria decumbens), cocklebur (Xanthium strumarium), corn (Zea mays), crabgrass (Digitaria sanguinalis), giant foxtail (Setaria faberii), lambsquarters (Chenopodium album), momingglory (Ipomoea hederacea), pigweed (Amaranthus retroflexus), rape (Brassica napus), soybean (Glycine max), sugar beet (Beta vulgaris), velvetleaf (Abutilon theophrasti), wheat (Triticum aestivum), wild oat (Avena fatua) and purple nutsedge (Cyperus rotundus) tubers were planted and treated preemergence with test chemicals formulated in a non-phytotoxic solvent mixture which included a surfactant.
(§2) At the same time, these crop and weed species were also treated with postemergence applications of test chemicals formulated in the same manner. Plants ranged in height from 2 to 18 cm (1- to 4-leaf stage) for postemergence treatments. Plant species in the flood test consisted of rice (Oryza sativa), smallflower flatsedge (Cyperus difformis), duck salad (Heteranthera limosa) and bamyardgrass (Echinochloa crus-galli) grown to the 2-leaf stage for testing. Treated plants and controls were maintained in a greenhouse for twelve to sixteen days, after which all species were compared to controls and visually evaluated. Plant response ratings, summarized in Table B, are based on a scale of 0 to 10 where 0 is no effect and 10 is complete control. A dash (−) response means no test result.

[2] = tested on: blackgrass (Alopecurus myosuroides); experiment: Test B pre-/postemergence
Description: as §1, §2

[3] = tested on: broadleaf signalgrass (Brachiaria decumbens); experiment: Test B pre-/postemergence
Description: as §1, §2

[4] = tested on: cocklebur (Xanthium strumarium); experiment: Test B pre-/postemergence; details: for Plant response rating, Cocklebur: Postemergence; for Cocklebur plant response rating: Preemergence
Description: as §1, §2

corn (Zea mays) = experiment: Test B pre-/postemergence
Description: as §1, §2

[5] = tested on: crabgrass (Digitaria sanguinalis); experiment: Test B pre-/postemergence
Description: as §1, §2

[6] = tested on: giant foxtail (Setaria faberii); experiment: Test B pre-/postemergence
Description: as §1, §2

[7] = tested on: momingglory (Ipomoea hederacea); experiment: Test B pre-/postemergence
Description: as §1, §2

[8] = tested on: pigweed (Amaranthus retroflexus); experiment: Test B pre-/postemergence
Description: as §1, §2

[9] = tested on: purple nutsedge (Cyperus rotundus); experiment: Test B pre-/postemergence
Description: as §1, §2

rape (Brassica napus) = experiment: Test B pre-/postemergence
Description: as §1, §2

soybean (Glycine max) = experiment: Test B pre-/postemergence
Description: as §1, §2

[10] = tested on: sugar beet (Beta vulgaris); experiment: Test B pre-/postemergence
Description: as §1, §2

[11] = tested on: velvetleaf (Abutilon theophrasti); experiment: Test B pre-/postemergence
Description: as §1, §2

[12] = tested on: wheat (Triticum aestivum); experiment: Test B pre-/postemergence
Description: as §1, §2

wild oat (Avena fatua) = experiment: Test B pre-/postemergence
Description: as §1, §2

[13] = tested on: bamyardgrass (Echinochloa crus-galli); experiment: Test B flood test
Summary of the method: (§3)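 Plants were grown to the 2-leaf stage before treatment with test chemical, then held in a greenhouse for twelve to sixteen days. Injury was visually rated against untreated controls on a 0–10 scale, where 0 is no effect and 10 is complete control.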

[14] = tested on: duck salad (Heteranthera limosa); experiment: Test B flood test
Summary of the method: as §3

rice (Oryza sativa) = experiment: Test B flood test
Summary of the method: as §3

[15] = tested on: smallflower flatsedge (Cyperus difformis); experiment: Test B flood test
Summary of the method: as §3

[16] = Rate 62 g/ha, Postemergence (flood test)
[17] = Rate 125 g/ha, Postemergence, flood test
[18] = Rate 250 g/ha, Postemergence (flood test species)

COC(c1cccc(C(F)(F)F)c1)c1nc(-c2ccc(C(F)(F)F)cc2)ncc1C (racemic) [Compound 20]
8: Plant response rating, Redroot pigweed ([8]; Rate 250 g/ha, Postemergence)
4: Plant response rating, Bedstraw ([1]; Rate 62 g/ha, Postemergence) | Plant response rating, Bedstraw ([1]; Rate 125 g/ha, Postemergence) | Plant response rating, Bedstraw ([1]; Rate 250 g/ha, Postemergence) | Plant response rating, Blackgrass ([2]; Rate 250 g/ha, Preemergence) | Plant response rating, B. signalgrass ([3]; Rate 250 g/ha, Preemergence) | Plant response rating, Cocklebur ([4]; Rate 62 g/ha) | Plant response rating, Morningglory ([7]; Rate 125 g/ha, Postemergence) | Plant response rating, Morningglory ([7]; Rate 250 g/ha, Postemergence) | Plant response rating, Rape (rape (Brassica napus); Rate 125 g/ha, Postemergence) | Plant response rating, Soybean (soybean (Glycine max); Rate 62 g/ha, Postemergence) | Plant response rating, Velvetleaf ([11]; Rate 62 g/ha, Postemergence)
3: Plant response rating, Blackgrass ([2]; Rate 250 g/ha, Postemergence) | Plant response rating, B. signalgrass ([3]; Rate 250 g/ha, Postemergence) | Plant response rating, Corn (corn (Zea mays); Rate 62 g/ha, Postemergence) | Plant response rating, Corn (corn (Zea mays); Rate 125 g/ha, Postemergence) | Plant response rating, Corn (corn (Zea mays); Rate 250 g/ha, Postemergence) | Plant response rating, Crabgrass ([5]; Rate 125 g/ha, Postemergence) | Plant response rating, Crabgrass ([5]; Rate 250 g/ha, Postemergence) | Plant response rating, Giant foxtail ([6]; Rate 250 g/ha, Postemergence) | Plant response rating, Morningglory ([7]; Rate 62 g/ha, Postemergence) | Plant response rating, Rape (rape (Brassica napus); Rate 62 g/ha, Postemergence) | Plant response rating, Sugarbeets ([10]; Rate 62 g/ha, Postemergence) | Plant response rating, Wheat ([12]; Rate 125 g/ha, Postemergence) | Plant response rating, Wheat ([12]; Rate 250 g/ha, Postemergence) | Plant response rating, Wild oats (wild oat (Avena fatua); Rate 125 g/ha, Postemergence) | Plant response rating, Wild oats (wild oat (Avena fatua); Rate 250 g/ha, Postemergence) | Plant response rating, Wild oats (wild oat (Avena fatua); Rate 250 g/ha, Preemergence)
0: Bedstraw plant response rating ([1]; Rate 62 g/ha, Preemergence) | Bedstraw plant response rating ([1]; Rate 125 g/ha, Preemergence) | B. signalgrass plant response rating ([3]; Rate 62 g/ha, Preemergence) | Cocklebur plant response rating ([4]; Rate 62 g/ha) | Cocklebur plant response rating ([4]; Rate 125 g/ha) | Corn plant response rating (corn (Zea mays); Rate 62 g/ha, Preemergence) | Corn plant response rating (corn (Zea mays); Rate 125 g/ha, Preemergence) | Plant response rating, Corn (corn (Zea mays); Rate 250 g/ha, Preemergence) | Crabgrass plant response rating ([5]; Rate 62 g/ha, Preemergence) | Giant foxtail plant response rating ([6]; Rate 62 g/ha, Preemergence) | Giant foxtail plant response rating ([6]; Rate 125 g/ha, Preemergence) | Morningglory plant response rating ([7]; Rate 62 g/ha, Preemergence) | Morningglory plant response rating ([7]; Rate 125 g/ha, Preemergence) | Plant response rating, Morningglory ([7]; Rate 250 g/ha, Preemergence) | Redroot pigweed plant response rating ([8]; Rate 62 g/ha, Preemergence) | Redroot pigweed plant response rating ([8]; Rate 125 g/ha, Preemergence) | Plant response rating, Nutsedge ([9]; Rate 62 g/ha, Postemergence) | Nutsedge plant response rating ([9]; Rate 62 g/ha, Preemergence) | Plant response rating, Nutsedge ([9]; Rate 125 g/ha, Postemergence) | Plant response rating, Nutsedge ([9]; Rate 250 g/ha, Postemergence) | Plant response rating, Nutsedge ([9]; Rate 250 g/ha, Preemergence) | Rape plant response rating (rape (Brassica napus); Rate 62 g/ha, Preemergence) | Rape plant response rating (rape (Brassica napus); Rate 125 g/ha, Preemergence) | Plant response rating, Rape (rape (Brassica napus); Rate 250 g/ha, Preemergence) | Soybean plant response rating (soybean (Glycine max); Rate 62 g/ha, Preemergence) | Soybean plant response rating (soybean (Glycine max); Rate 125 g/ha, Preemergence) | Plant response rating, Soybean (soybean (Glycine max); Rate 250 g/ha, Preemergence) | Sugarbeets plant response rating ([10]; Rate 62 g/ha, Preemergence) | Sugarbeets plant response rating ([10]; Rate 125 g/ha, Preemergence) | Velvetleaf plant response rating ([11]; Rate 62 g/ha, Preemergence) | Velvetleaf plant response rating ([11]; Rate 125 g/ha, Preemergence) | Plant response rating, Velvetleaf ([11]; Rate 250 g/ha, Preemergence) | Wheat plant response rating ([12]; Rate 62 g/ha, Preemergence) | Wheat plant response rating ([12]; Rate 125 g/ha, Preemergence) | Plant response rating, Wheat ([12]; Rate 250 g/ha, Preemergence) | Plant response rating, Barnyardgrass [13, 16] | Plant response rating, Barnyardgrass [13, 17] | Plant response rating, Barnyardgrass [13, 18] | Plant response rating, Ducksalad [14, 16] | Plant response rating, Ducksalad [14, 17] | Plant response rating, Ducksalad [14, 18] | Plant response rating, Rice (rice (Oryza sativa); [16]) | Plant response rating, Rice (rice (Oryza sativa); [17]) | Plant response rating, Rice (rice (Oryza sativa); [18]) | Plant response rating, S. Flatsedge [15, 16] | Plant response rating, S. Flatsedge [15, 17] | Plant response rating, S. Flatsedge [15, 18]
6: Plant response rating, Soybean (soybean (Glycine max); Rate 250 g/ha, Postemergence) | Plant response rating, Velvetleaf ([11]; Rate 125 g/ha, Postemergence)
2: Plant response rating, Blackgrass ([2]; Rate 62 g/ha, Postemergence) | Plant response rating, Blackgrass ([2]; Rate 125 g/ha, Postemergence) | Blackgrass plant response rating ([2]; Rate 125 g/ha, Preemergence) | Plant response rating, B. signalgrass ([3]; Rate 62 g/ha, Postemergence) | Plant response rating, B. signalgrass ([3]; Rate 125 g/ha, Postemergence) | Plant response rating, Crabgrass ([5]; Rate 62 g/ha, Postemergence) | Plant response rating, Crabgrass ([5]; Rate 250 g/ha, Preemergence) | Plant response rating, Giant foxtail ([6]; Rate 62 g/ha, Postemergence) | Plant response rating, Giant foxtail ([6]; Rate 125 g/ha, Postemergence) | Plant response rating, Sugarbeets ([10]; Rate 250 g/ha, Preemergence) | Plant response rating, Wheat ([12]; Rate 62 g/ha, Postemergence) | Plant response rating, Wild oats (wild oat (Avena fatua); Rate 62 g/ha, Postemergence) | Wild oats plant response rating (wild oat (Avena fatua); Rate 125 g/ha, Preemergence)
5: Plant response rating, Cocklebur ([4]; Rate 125 g/ha) | Plant response rating, Redroot pigweed ([8]; Rate 62 g/ha, Postemergence) | Plant response rating, Rape (rape (Brassica napus); Rate 250 g/ha, Postemergence) | Plant response rating, Soybean (soybean (Glycine max); Rate 125 g/ha, Postemergence) | Plant response rating, Sugarbeets ([10]; Rate 125 g/ha, Postemergence)
7: Plant response rating, Cocklebur ([4]; Rate 250 g/ha) | Plant response rating, Redroot pigweed ([8]; Rate 125 g/ha, Postemergence) | Plant response rating, Sugarbeets ([10]; Rate 250 g/ha, Postemergence) | Plant response rating, Velvetleaf ([11]; Rate 250 g/ha, Postemergence)
1: Plant response rating, Bedstraw ([1]; Rate 250 g/ha, Preemergence) | Blackgrass plant response rating ([2]; Rate 62 g/ha, Preemergence) | B. signalgrass plant response rating ([3]; Rate 125 g/ha, Preemergence) | Crabgrass plant response rating ([5]; Rate 125 g/ha, Preemergence) | Plant response rating, Giant foxtail ([6]; Rate 250 g/ha, Preemergence) | Plant response rating, Redroot pigweed ([8]; Rate 250 g/ha, Preemergence) | Wild oats plant response rating (wild oat (Avena fatua); Rate 62 g/ha, Preemergence)
